Experimental data from ChEMBL document CHEMBL2429768, “Eco-friendly synthesis and antimicrobial activities of substituted-5-(1H-indol-3-yl)methylene)-2,2-dimethyl-1,3-dioxane-4,6-dione derivatives” (2013).
≈ marks a conversion by molar mass, not a printed value.

How the values were obtained:
Type in all cases: functional
[1] = test system: Aspergillus niger; assay: Antifungal activity against Aspergillus niger at 50 ug/ml after 72 hrs by agar well diffusion method; conditions: read-out: DIZ
[2] = test system: Fusarium oxysporum; assay: Antifungal activity against Fusarium oxysporum at 500 ug/ml after 72 hrs by agar well diffusion method; conditions: read-out: DIZ
[3] = test system: Fusarium oxysporum; assay: Antifungal activity against Fusarium oxysporum at 300 ug/ml after 72 hrs by agar well diffusion method; conditions: read-out: DIZ
[4] = test system: Fusarium oxysporum; assay: Antifungal activity against Fusarium oxysporum at 200 ug/ml after 72 hrs by agar well diffusion method; conditions: read-out: DIZ
[5] = test system: Fusarium oxysporum; assay: Antifungal activity against Fusarium oxysporum at 100 ug/ml after 72 hrs by agar well diffusion method; conditions: read-out: DIZ
[6] = test system: Fusarium oxysporum; assay: Antifungal activity against Fusarium oxysporum at 50 ug/ml after 72 hrs by agar well diffusion method; conditions: read-out: DIZ
[7] = test system: Rhizoctonia solani; assay: Antifungal activity against Rhizoctonia solani at 500 ug/ml after 72 hrs by agar well diffusion method; conditions: read-out: DIZ
[8] = test system: Rhizoctonia solani; assay: Antifungal activity against Rhizoctonia solani at 300 ug/ml after 72 hrs by agar well diffusion method; conditions: read-out: DIZ
[9] = test system: Rhizoctonia solani; assay: Antifungal activity against Rhizoctonia solani at 200 ug/ml after 72 hrs by agar well diffusion method; conditions: read-out: DIZ
[10] = test system: Rhizoctonia solani; assay: Antifungal activity against Rhizoctonia solani at 100 ug/ml after 72 hrs by agar well diffusion method; conditions: read-out: DIZ
[11] = test system: Rhizoctonia solani; assay: Antifungal activity against Rhizoctonia solani at 50 ug/ml after 72 hrs by agar well diffusion method; conditions: read-out: DIZ
[12] = test system: Bacillus subtilis; assay: Antibacterial activity against Bacillus subtilis at 500 ug/ml after 24 hrs by agar well diffusion method; conditions: read-out: DIZ
[13] = test system: Bacillus subtilis; assay: Antibacterial activity against Bacillus subtilis at 300 ug/ml after 24 hrs by agar well diffusion method; conditions: read-out: DIZ
[14] = test system: Bacillus subtilis; assay: Antibacterial activity against Bacillus subtilis at 200 ug/ml after 24 hrs by agar well diffusion method; conditions: read-out: DIZ
[15] = test system: Bacillus subtilis; assay: Antibacterial activity against Bacillus subtilis at 100 ug/ml after 24 hrs by agar well diffusion method; conditions: read-out: DIZ
[16] = test system: Bacillus subtilis; assay: Antibacterial activity against Bacillus subtilis at 50 ug/ml after 24 hrs by agar well diffusion method; conditions: read-out: DIZ
[17] = test system: Staphylococcus aureus; assay: Antibacterial activity against Staphylococcus aureus ATCC 6538 at 500 ug/ml after 24 hrs by agar well diffusion method; conditions: ATCC 6538, 24 h, read-out: DIZ
[18] = test system: Staphylococcus aureus; assay: Antibacterial activity against Staphylococcus aureus ATCC 6538 at 300 ug/ml after 24 hrs by agar well diffusion method; conditions: ATCC 6538, 24 h, read-out: DIZ
[19] = test system: Staphylococcus aureus; assay: Antibacterial activity against Staphylococcus aureus ATCC 6538 at 200 ug/ml after 24 hrs by agar well diffusion method; conditions: ATCC 6538, 24 h, read-out: DIZ
[20] = test system: Staphylococcus aureus; assay: Antibacterial activity against Staphylococcus aureus ATCC 6538 at 100 ug/ml after 24 hrs by agar well diffusion method; conditions: ATCC 6538, 24 h, read-out: DIZ
[21] = test system: Escherichia coli; assay: Antibacterial activity against Escherichia coli ATCC 8739 at 300 ug/ml after 24 hrs by agar well diffusion method; conditions: ATCC 8739, 24 h, read-out: DIZ
[22] = test system: Escherichia coli; assay: Antibacterial activity against Escherichia coli ATCC 8739 at 200 ug/ml after 24 hrs by agar well diffusion method; conditions: ATCC 8739, 24 h, read-out: DIZ
[23] = test system: Escherichia coli; assay: Antibacterial activity against Escherichia coli ATCC 8739 at 100 ug/ml after 24 hrs by agar well diffusion method; conditions: ATCC 8739, 24 h, read-out: DIZ
[24] = test system: Escherichia coli; assay: Antibacterial activity against Escherichia coli ATCC 8739 at 50 ug/ml after 24 hrs by agar well diffusion method; conditions: ATCC 8739, 24 h, read-out: DIZ
[25] = test system: Klebsiella pneumoniae; assay: Antibacterial activity against Klebsiella pneumoniae at 500 ug/ml after 24 hrs by agar well diffusion method; conditions: read-out: DIZ
[26] = test system: Klebsiella pneumoniae; assay: Antibacterial activity against Klebsiella pneumoniae at 300 ug/ml after 24 hrs by agar well diffusion method; conditions: read-out: DIZ
[27] = test system: Klebsiella pneumoniae; assay: Antibacterial activity against Klebsiella pneumoniae at 200 ug/ml after 24 hrs by agar well diffusion method; conditions: read-out: DIZ
[28] = test system: Klebsiella pneumoniae; assay: Antibacterial activity against Klebsiella pneumoniae at 50 ug/ml after 24 hrs by agar well diffusion method; conditions: read-out: DIZ
[29] = test system: Escherichia coli; assay: Antibacterial activity against Escherichia coli ATCC 8739 at 500 ug/ml after 24 hrs by agar well diffusion method; conditions: ATCC 8739, 24 h, read-out: DIZ
[30] = test system: Klebsiella pneumoniae; assay: Antibacterial activity against Klebsiella pneumoniae at 100 ug/ml after 24 hrs by agar well diffusion method; conditions: read-out: DIZ
[31] = test system: Staphylococcus aureus; assay: Antibacterial activity against Staphylococcus aureus ATCC 6538 at 50 ug/ml after 24 hrs by agar well diffusion method; conditions: ATCC 6538, 24 h, read-out: DIZ
[32] = test system: Aspergillus flavus; assay: Antifungal activity against Aspergillus flavus at 50 ug/ml after 72 hrs by agar well diffusion method; conditions: read-out: DIZ
[33] = test system: Aspergillus flavus; assay: Antifungal activity against Aspergillus flavus at 100 ug/ml after 72 hrs by agar well diffusion method; conditions: read-out: DIZ
[34] = test system: Aspergillus flavus; assay: Antifungal activity against Aspergillus flavus after 72 hrs by agar well diffusion method
[35] = test system: Aspergillus niger; assay: Antifungal activity against Aspergillus niger after 72 hrs by agar well diffusion method
[36] = test system: Fusarium oxysporum; assay: Antifungal activity against Fusarium oxysporum after 72 hrs by agar well diffusion method
[37] = test system: Rhizoctonia solani; assay: Antifungal activity against Rhizoctonia solani after 72 hrs by agar well diffusion method
[38] = test system: Bacillus subtilis; assay: Antibacterial activity against Bacillus subtilis after 24 hrs by agar well diffusion method
[39] = test system: Staphylococcus aureus; assay: Antibacterial activity against Staphylococcus aureus ATCC 6538 after 24 hrs by agar well diffusion method; conditions: ATCC 6538, 24 h
[40] = test system: Escherichia coli; assay: Antibacterial activity against Escherichia coli ATCC 8739 after 24 hrs by agar well diffusion method; conditions: ATCC 8739, 24 h
[41] = test system: Klebsiella pneumoniae; assay: Antibacterial activity against Klebsiella pneumoniae after 24 hrs by agar well diffusion method
[42] = test system: Aspergillus flavus; assay: Antifungal activity against Aspergillus flavus at 500 ug/ml after 72 hrs by agar well diffusion method; conditions: read-out: DIZ
[43] = test system: Aspergillus flavus; assay: Antifungal activity against Aspergillus flavus at 300 ug/ml after 72 hrs by agar well diffusion method; conditions: read-out: DIZ
[44] = test system: Aspergillus flavus; assay: Antifungal activity against Aspergillus flavus at 200 ug/ml after 72 hrs by agar well diffusion method; conditions: read-out: DIZ
[45] = test system: Aspergillus niger; assay: Antifungal activity against Aspergillus niger at 500 ug/ml after 72 hrs by agar well diffusion method; conditions: read-out: DIZ
[46] = test system: Aspergillus niger; assay: Antifungal activity against Aspergillus niger at 300 ug/ml after 72 hrs by agar well diffusion method; conditions: read-out: DIZ
[47] = test system: Aspergillus niger; assay: Antifungal activity against Aspergillus niger at 200 ug/ml after 72 hrs by agar well diffusion method; conditions: read-out: DIZ
[48] = test system: Aspergillus niger; assay: Antifungal activity against Aspergillus niger at 100 ug/ml after 72 hrs by agar well diffusion method; conditions: read-out: DIZ

## CC1(C)OC(=O)C(=Cc2c[nH]c3ccc(Br)cc23)C(=O)O1
[1]
  zone of inhibition at 50 µg/mL: 7 mm
[2]
  zone of inhibition at 500 µg/mL: 31 mm
[3]
  zone of inhibition at 300 µg/mL: 21 mm
[4]
  zone of inhibition at 200 µg/mL: 17 mm
[5]
  zone of inhibition at 100 µg/mL: 14 mm
[6]
  zone of inhibition at 50 µg/mL: 10 mm
[7]
  zone of inhibition at 500 µg/mL: 32 mm
[8]
  zone of inhibition at 300 µg/mL: 24 mm
[9]
  zone of inhibition at 200 µg/mL: 19 mm
[10]
  zone of inhibition at 100 µg/mL: 15 mm
[11]
  zone of inhibition at 50 µg/mL: 10 mm
[12]
  zone of inhibition at 500 µg/mL: 25 mm
[13]
  zone of inhibition at 300 µg/mL: 17 mm
[14]
  zone of inhibition at 200 µg/mL: 13 mm
[15]
  zone of inhibition at 100 µg/mL: 11.5 mm
[16]
  zone of inhibition at 50 µg/mL: 7 mm
[17]
  zone of inhibition at 500 µg/mL: 27 mm
[18]
  zone of inhibition at 300 µg/mL: 19 mm
[19]
  zone of inhibition at 200 µg/mL: 15 mm
[20]
  zone of inhibition at 100 µg/mL: 12 mm
[21]
  zone of inhibition at 300 µg/mL: 23 mm
[22]
  zone of inhibition at 200 µg/mL: 16 mm
[23]
  zone of inhibition at 100 µg/mL: 15.5 mm
[24]
  zone of inhibition at 50 µg/mL: 10.4 mm
[25]
  zone of inhibition at 500 µg/mL: 34 mm
[26]
  zone of inhibition at 300 µg/mL: 25 mm
[27]
  zone of inhibition at 200 µg/mL: 20 mm
[28]
  zone of inhibition at 50 µg/mL: 11 mm
[29]
  zone of inhibition at 500 µg/mL: 32 mm
[30]
  zone of inhibition at 100 µg/mL: 16 mm
[31]
  zone of inhibition at 50 µg/mL: 8 mm
[32]
  zone of inhibition at 50 µg/mL: 5 mm
[33]
  zone of inhibition at 100 µg/mL: 10 mm
[34]
  MIC: 35 µg/mL (≈ 100 µM)
[35]
  MIC: 30 µg/mL (≈ 85.7 µM)
[36]
  MIC: 25 µg/mL (≈ 71.4 µM)
[37]
  MIC: 25 µg/mL (≈ 71.4 µM)
[38]
  MIC: 20 µg/mL (≈ 57.1 µM)
[39]
  MIC: 20 µg/mL (≈ 57.1 µM)
[40]
  MIC: 10 µg/mL (≈ 28.6 µM)
[41]
  MIC: 10 µg/mL (≈ 28.6 µM)
[42]
  zone of inhibition at 500 µg/mL: 24 mm
[43]
  zone of inhibition at 300 µg/mL: 17 mm
[44]
  zone of inhibition at 200 µg/mL: 13 mm
[45]
  zone of inhibition at 500 µg/mL: 26 mm
[46]
  zone of inhibition at 300 µg/mL: 19 mm
[47]
  zone of inhibition at 200 µg/mL: 15 mm
[48]
  zone of inhibition at 100 µg/mL: 11 mm

## CCn1cc(C=C2C(=O)OC(C)(C)OC2=O)c2cc(Br)ccc21
[1]
  zone of inhibition at 50 µg/mL: 6 mm
[2]
  zone of inhibition at 500 µg/mL: 29 mm
[3]
  zone of inhibition at 300 µg/mL: 21 mm
[4]
  zone of inhibition at 200 µg/mL: 16 mm
[5]
  zone of inhibition at 100 µg/mL: 12 mm
[6]
  zone of inhibition at 50 µg/mL: 7 mm
[7]
  zone of inhibition at 500 µg/mL: 29 mm
[8]
  zone of inhibition at 300 µg/mL: 21 mm
[9]
  zone of inhibition at 200 µg/mL: 16 mm
[10]
  zone of inhibition at 100 µg/mL: 12 mm
[11]
  zone of inhibition at 50 µg/mL: 7 mm
[12]
  zone of inhibition at 500 µg/mL: 23 mm
[13]
  zone of inhibition at 300 µg/mL: 15 mm
[14]
  zone of inhibition at 200 µg/mL: 11 mm
[15]
  zone of inhibition at 100 µg/mL: 9.5 mm
[16]
  zone of inhibition at 50 µg/mL: 5 mm
[17]
  zone of inhibition at 500 µg/mL: 23 mm
[18]
  zone of inhibition at 300 µg/mL: 15 mm
[19]
  zone of inhibition at 200 µg/mL: 11 mm
[20]
  zone of inhibition at 100 µg/mL: 9.5 mm
[21]
  zone of inhibition at 300 µg/mL: 17 mm
[22]
  zone of inhibition at 200 µg/mL: 13 mm
[23]
  zone of inhibition at 100 µg/mL: 10 mm
[24]
  zone of inhibition at 50 µg/mL: 6 mm
[25]
  zone of inhibition at 500 µg/mL: 30 mm
[26]
  zone of inhibition at 300 µg/mL: 21 mm
[27]
  zone of inhibition at 200 µg/mL: 14 mm
[28]
  zone of inhibition at 50 µg/mL: 8.4 mm
[29]
  zone of inhibition at 500 µg/mL: 25 mm
[30]
  zone of inhibition at 100 µg/mL: 13.4 mm
[31]
  zone of inhibition at 50 µg/mL: 5 mm
[32]
  zone of inhibition at 50 µg/mL: 4 mm
[33]
  zone of inhibition at 100 µg/mL: 9 mm
[34]
  MIC: 40 µg/mL (≈ 106 µM)
[35]
  MIC: 40 µg/mL (≈ 106 µM)
[36]
  MIC: 35 µg/mL (≈ 92.5 µM)
[37]
  MIC: 35 µg/mL (≈ 92.5 µM)
[38]
  MIC: 30 µg/mL (≈ 79.3 µM)
[39]
  MIC: 25 µg/mL (≈ 66.1 µM)
[40]
  MIC: 15 µg/mL (≈ 39.7 µM)
[41]
  MIC: 15 µg/mL (≈ 39.7 µM)
[42]
  zone of inhibition at 500 µg/mL: 23 mm
[43]
  zone of inhibition at 300 µg/mL: 15 mm
[44]
  zone of inhibition at 200 µg/mL: 12 mm
[45]
  zone of inhibition at 500 µg/mL: 25 mm
[46]
  zone of inhibition at 300 µg/mL: 18 mm
[47]
  zone of inhibition at 200 µg/mL: 14 mm
[48]
  zone of inhibition at 100 µg/mL: 10 mm
